Literature values as cited in patent US20240156829A1, “Stable Antiemetic Emulsions for Parenteral Administration” (Slayback Pharma LLC, priority 2022, published 2024).
Where a name gives a salt, the structure may show the parent alone.

Columns and labels:
[1] = in vivo
[2] = by light or oxygen or heavy metals

| half-life [1] | Stability in a liquid medium [2] | solubility | Structure (SMILES) |
| --- | --- | --- | --- |
| 40 h | easily oxidized and degraded |  | O=C1c2cccc3c2[C@H](CCC3)CN1[C@@H]1CN2CCC1CC2 [Palonosetron hydrochloride, (3aS)-2-[(3S)-1-azabicyclo [2.2.2]octan-3-yl]-3a,4,5,6-tetrahydro-3H-benzo[de] isoquinolin-1-one; hydrochloride] |
|  |  | very poor | C[C@@H](O[C@H]1OCCN(Cc2n[nH]c(=O)[nH]2)[C@H]1c1ccc(F)cc1)c1cc(C(F)(F)F)cc(C(F)(F)F)c1 [Aprepitant, 5-([(2R, 3S)-2-((R)-1-[3,5-bis (trifluoromethyl)phenyl]ethoxy)-3-(4-fluoro-phenyl)morpholino]methyl)-1H-1,2,4-triazol-3(2H)-one] |
